Data published in PMC5773532, “Crystal structure of an assembly intermediate of respiratory Complex II” (Nature Communications, 2018).

T1: Escherichia coli succinate:quinone oxidoreductase flavoprotein subunit SdhA (isolated subunit) (E. coli, UniProt P0AC41 1-588)
T1 sequence (looked up): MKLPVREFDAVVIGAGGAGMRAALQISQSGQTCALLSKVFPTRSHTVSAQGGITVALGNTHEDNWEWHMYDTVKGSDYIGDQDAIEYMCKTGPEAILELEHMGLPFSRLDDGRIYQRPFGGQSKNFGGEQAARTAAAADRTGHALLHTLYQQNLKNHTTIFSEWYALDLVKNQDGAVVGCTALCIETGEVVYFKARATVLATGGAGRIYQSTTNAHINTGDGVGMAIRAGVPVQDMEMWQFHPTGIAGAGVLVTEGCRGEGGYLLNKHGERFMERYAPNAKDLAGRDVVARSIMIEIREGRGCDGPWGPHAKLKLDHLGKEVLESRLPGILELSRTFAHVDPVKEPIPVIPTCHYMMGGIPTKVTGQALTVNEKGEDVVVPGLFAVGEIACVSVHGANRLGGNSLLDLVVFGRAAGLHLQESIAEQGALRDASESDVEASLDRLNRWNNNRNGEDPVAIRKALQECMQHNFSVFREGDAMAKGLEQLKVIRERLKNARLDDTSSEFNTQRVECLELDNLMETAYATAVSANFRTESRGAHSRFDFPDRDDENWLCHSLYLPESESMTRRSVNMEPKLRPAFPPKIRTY

T2: Escherichia coli quinol:fumarate reductase flavoprotein subunit FrdA (isolated subunit) (E. coli, UniProt P00363 1-602, covalent FAD on H44 (8α-N(3)-histidyl linkage))
T2 sequence (looked up): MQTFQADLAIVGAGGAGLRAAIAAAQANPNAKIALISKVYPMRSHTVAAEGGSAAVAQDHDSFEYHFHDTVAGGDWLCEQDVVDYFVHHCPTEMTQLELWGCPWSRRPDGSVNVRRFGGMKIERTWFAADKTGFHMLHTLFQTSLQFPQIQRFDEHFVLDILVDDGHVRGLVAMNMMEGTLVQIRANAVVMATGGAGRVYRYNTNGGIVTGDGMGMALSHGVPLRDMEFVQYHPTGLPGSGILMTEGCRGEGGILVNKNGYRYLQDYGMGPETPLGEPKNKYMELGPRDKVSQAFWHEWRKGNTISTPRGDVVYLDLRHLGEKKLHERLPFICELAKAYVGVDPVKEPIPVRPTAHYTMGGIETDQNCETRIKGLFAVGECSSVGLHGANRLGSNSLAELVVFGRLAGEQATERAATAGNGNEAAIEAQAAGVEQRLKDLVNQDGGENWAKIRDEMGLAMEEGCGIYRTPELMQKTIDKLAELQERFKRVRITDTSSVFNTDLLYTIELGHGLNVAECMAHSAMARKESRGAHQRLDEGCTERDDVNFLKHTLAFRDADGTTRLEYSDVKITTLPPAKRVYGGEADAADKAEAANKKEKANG

B1: Escherichia coli SdhE assembly factor (natural protein, E. coli)
chain: MDINNKARIHWACRRGMRELDISIMPFFEHEYDSLSDDEKRIFIRLLECDDPDLFNWLMNHGKPADAELEMMVRLIQTRNRERGPVAI
notes: SdhE, FAD assembly factor of E. coli Complex II, as used in optical titrations and kinetics; construct not described

Tests used:
E. coli FrdA subunit = biological target: T3, E. coli FrdA subunit (Escherichia coli, UniProt P00363); experiment: biochemical; type: binding
T3 construct: made in house; host or cells: E. coli RP-2 (RP437ΔfrdΔsdh)
Description: (§1) To interrogate dicarboxylate orientation in solution, we focused on oxaloacetate. When oxaloacetate is correctly oriented in the active site, it induces a characteristic spectrum (charge transfer band) attributed to π–π interactions between the oxygen of oxaloacetate and the isoalloxazine ring of FAD.
(§2) Studies were performed using a HP8453 UV/Vis spectrophotometer (Agilent, Santa Clara, CA). Binding experiments were carried out in 50 mM Bis-Tris-Propane (pH 8.0) at 25 °C. The isolated flavoproteins were added to a cuvette and titrated by the sequential addition of ligand solutions. The wavelength giving the highest amplitude change for each ligand was selected from the difference spectra for the analysis. The dissociation constant (Kd) values were obtained by the analysis of the changes in absorbance vs total ligand concentration. The Kd was determined according Eq. 1:1 ΔA=ΔAmaxET+LT+Kd-ET+LT+Kd^2-4ETLT/2ET where ET is a total protein concentration, LT is a total ligand concentration, ΔA and ΔAmax are the absorbance changes at a given and saturation ligand concentration. The protein concentration used for FrdA, SdhA, and quinol:fumarate reductase (QFR) were in a range of 7 to 9 µM. […]

FrdA+SdhE = biological target: T4, FrdA+SdhE (Escherichia coli, UniProt P00363); experiment: Optical difference spectroscopy, dicarboxylate binding to FrdA in the presence of SdhE
T4 construct: made in house; host or cells: FrdA: E. coli RP-2; SdhE for this assay: not described
Description: (§3) If this mechanistic proposal for covalent flavinylation is correct, we would anticipate that the FrdA-SdhE assembly intermediate would bind with reasonable affinity to biologically relevant dicarboxylates. […] Thus, the shifted architecture of SdhE-bound FrdA maintains dicarboxylate binding, supporting our mechanism.
(§4) Studies were performed using a HP8453 UV/Vis spectrophotometer (Agilent, Santa Clara, CA). […] The isolated flavoproteins were added to a cuvette and titrated by the sequential addition of ligand solutions. The wavelength giving the highest amplitude change for each ligand was selected from the difference spectra for the analysis. The dissociation constant (Kd) values were obtained by the analysis of the changes in absorbance vs total ligand concentration. The Kd was determined according Eq. 1:1 ΔA=ΔAmaxET+LT+Kd-ET+LT+Kd^2-4ETLT/2ET where ET is a total protein concentration, LT is a total ligand concentration, ΔA and ΔAmax are the absorbance changes at a given and saturation ligand concentration. The protein concentration used for FrdA, SdhA, and quinol:fumarate reductase (QFR) were in a range of 7 to 9 µM. […] The concentration of the isolated flavoprotein was determined in 0.5% SDS using the FAD extinction coefficient ε^445 = […].

SdhA+SdhE = SdhA+SdhE (Escherichia coli, UniProt P0AC41); experiment: Optical difference spectroscopy, dicarboxylate binding to SdhA in the presence of SdhE; settings: read-out: Kd^malonate
Description: as §3, §4

E. coli SdhA subunit = E. coli SdhA subunit (Escherichia coli, UniProt P0AC41); experiment: Optical difference spectroscopy, ligand binding to isolated SdhA subunit; settings: read-out: Kd^malonate
Description: as §1, §2

[1] = biological target: T1, Escherichia coli succinate:quinone …; experiment: cell-based or functional assay
[2] = biological target: T2, Escherichia coli quinol:fumarate …; experiment: cell-based or functional assay
[3] = biological target: T2, Escherichia coli quinol:fumarate …; experiment: optical difference spectroscopy (FAD absorbance titration); isolated flavoprotein (7 to 9 µM) in the cuvette titrated with SdhE; 50 mM Bis-Tris-Propane pH 8.0, 25 °C; 387–458 nm; fit of absorbance change against total ligand concentration; settings: both partners purified

Molecule | Kd (E. coli FrdA subunit) | increase of Kd^malonate in the presence of SdhE (FrdA+SdhE; presence vs absence of SdhE, stated for both FrdA and SdhA subunits) | Kd (FrdA+SdhE; read-out: Kd^malonate) | Kd (SdhA+SdhE) | Kd (E. coli SdhA subunit) | inhibition by SdhE of the succinate:DCIP reductase reaction of isolated SdhA, pH 8.0, 30 °C; IC50^SdhE [1] | inhibition by SdhE of the succinate:DCIP reductase reaction of isolated FrdA (0.45 µM), pH 8.0, 30 °C; IC50^SdhE [2] | Kd [3]
O=C(O)CC(=O)O [malonate] | 26 ± 3 µM | 5- to 7 fold | 180 ± 20 µM | 60 ± 5 µM | 11 ± 1 µM | – | – | –
B1 | – | – | – | – | – | 1.5 µM | 1.2 µM | 0.7 ± 0.1 µM
